Where two headings read alike, the source gives them in different places.
Assays:
Assay in all cases: Competition fluorescence polarization (anisotropy) with fluoresceinated BIM
Type in all cases: binding
Bfl-1 = target: T1, Bfl-1 (Homo sapiens, UniProt Q16548)
T1 construct: c-myc
T1 sequence (Q16548 1-175): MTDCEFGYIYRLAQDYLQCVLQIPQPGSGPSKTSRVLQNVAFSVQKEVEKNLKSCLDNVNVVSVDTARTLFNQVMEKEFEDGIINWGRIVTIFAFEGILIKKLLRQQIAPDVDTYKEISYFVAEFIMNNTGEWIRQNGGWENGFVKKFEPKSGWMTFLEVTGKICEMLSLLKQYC
Protocol: (§1) Plates were mixed at 23°C for 3 hr. Plates were read again at 24 to check equilibration. Experiments were done in at least triplicate.

Bcl-w = target: T2, Bcl-w (Homo sapiens, UniProt Q92843)
T2 construct: c-myc
T2 sequence (Q92843 1-193): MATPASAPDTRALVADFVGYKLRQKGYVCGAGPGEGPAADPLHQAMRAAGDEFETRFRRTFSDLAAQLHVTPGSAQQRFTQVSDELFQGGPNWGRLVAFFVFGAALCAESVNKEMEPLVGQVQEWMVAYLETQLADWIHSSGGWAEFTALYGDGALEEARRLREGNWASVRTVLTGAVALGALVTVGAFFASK
Protocol: as §1

Bcl-2 = target: T3, Bcl-2 (Homo sapiens, UniProt P10415)
T3 construct: c-myc
Protocol: as §1

Bcl-xL = target: T4, Bcl-xL (Homo sapiens, UniProt Q07817)
T4 construct: c-myc
Protocol: as §1

Mcl-1 = target: T5, Mcl-1 (Homo sapiens, UniProt Q07820)
T5 construct: c-myc
Protocol: C-myc-tagged receptors were used for all Bcl-2 homologs, as previously described ([DeBartolo et al., 2012]; [Dutta et al., 2010]). Plates were mixed at 23°C for 3 hr. Plates were read again at 24 to check equilibration. Experiments were done in at least triplicate. Data were fit, as described for competition fluorescence anisotropy experiments in [Foight et al. (2014]), to a complete competitive binding model (equation 17 in [Roehrl et al. [2004]]) using a Python script.

[1] = competition FP source data, replicate 1
[2] = competition FP source data, replicate 2
[3] = competition FP source data, replicate 3
[4] = competition FP, 50 nM c-myc-tagged receptor + 25 nM fluoresceinated BIM, Tris pH 7.8, 23°C, 3 hr, mean ± SD of three replicates, read-out: Ki (nM) Bcl-w
[5] = competition FP, 50 nM c-myc-tagged receptor + 25 nM fluoresceinated BIM, Tris pH 7.8, 23°C, 3 hr, mean ± SD of three replicates, read-out: Ki (nM) Bcl-2
[6] = competition FP, 50 nM c-myc-tagged receptor + 25 nM fluoresceinated BIM, Tris pH 7.8, 23°C, 3 hr, mean ± SD of three replicates, read-out: Ki (nM) Bcl-xL
[7] = competition FP source data, mean of three replicates, values above 5 μM are reported as > 5 μM in the figures, read-out: mean Ki (M) Mcl-1
[8] = competition FP, 50 nM c-myc-tagged receptor + 25 nM fluoresceinated BIM, Tris pH 7.8, 23°C, 3 hr, mean ± SD of three replicates, read-out: Ki (nM) Mcl-1

T3 sequence (P10415 whole entry): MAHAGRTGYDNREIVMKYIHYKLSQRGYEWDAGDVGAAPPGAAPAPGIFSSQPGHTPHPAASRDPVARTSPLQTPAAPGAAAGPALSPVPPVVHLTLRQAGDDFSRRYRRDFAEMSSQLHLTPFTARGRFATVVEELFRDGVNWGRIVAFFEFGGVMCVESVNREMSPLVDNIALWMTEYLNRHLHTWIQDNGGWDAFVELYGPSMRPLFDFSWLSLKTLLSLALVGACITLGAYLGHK
T4 sequence (Q07817 whole entry): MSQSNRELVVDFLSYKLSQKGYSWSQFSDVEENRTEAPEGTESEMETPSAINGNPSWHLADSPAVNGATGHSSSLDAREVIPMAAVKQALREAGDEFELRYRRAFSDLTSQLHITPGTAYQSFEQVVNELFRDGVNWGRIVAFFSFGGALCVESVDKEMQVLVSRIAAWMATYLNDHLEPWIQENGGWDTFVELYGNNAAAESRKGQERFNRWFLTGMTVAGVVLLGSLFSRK
T5 sequence (Q07820 whole entry): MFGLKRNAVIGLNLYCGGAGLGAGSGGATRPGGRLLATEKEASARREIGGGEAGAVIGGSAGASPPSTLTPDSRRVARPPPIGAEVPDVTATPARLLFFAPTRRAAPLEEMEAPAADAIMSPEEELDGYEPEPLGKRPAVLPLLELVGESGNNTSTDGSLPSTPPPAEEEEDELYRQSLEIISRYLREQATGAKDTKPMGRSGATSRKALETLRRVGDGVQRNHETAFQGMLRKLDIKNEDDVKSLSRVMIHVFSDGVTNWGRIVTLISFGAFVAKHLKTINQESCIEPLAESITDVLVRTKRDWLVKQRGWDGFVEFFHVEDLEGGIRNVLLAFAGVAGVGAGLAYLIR

Row | Substance | Ki (M) Bfl-1 (Bfl-1; [1]) [M] | Ki (M) Bfl-1 (Bfl-1; [2]) [M] | Ki (M) Bfl-1 (Bfl-1; [3]) [M] | Ki (Bcl-w; [4]) [nM] | Ki (Bcl-2; [5]) [nM] | Ki (Bcl-xL; [6]) [M] | Ki (Mcl-1; [7]) [M] | Ki (M) Mcl-1 (Mcl-1; [1]) [M] | Ki (M) Mcl-1 (Mcl-1; [2]) [M] | Ki (M) Mcl-1 (Mcl-1; [3]) [M] | Ki (Mcl-1; [8]) [M] | other results
1 | Ac-RPVIWIAQGLRRAGDEVNAYVAR-NH2 [BIM-FS2] | 7.75e-07 | 7.87e-07 | 5.89e-07 |  |  |  |  |  |  |  |  | fold weaker binding to Bfl-1 than native BIM (Bfl-1; ratio of Ki values from competition FP): > 1000 fold
2 | Ac-QWAREIGAGLRRAADDVNAQVER-NH2 [Puma_N/FS2_C] |  |  |  | > 5000 | 2000 ± 160 | 1.1e-06 ± 3e-07 | 3.36e-10 | 6.72e-10 | 1.94e-10 | 1.4e-10 | > 5e-06 | Ki (Bcl-xL; competition FP source data, mean of three replicates, values above 5 μM are reported as > 5 μM in the figures, read-out: mean Ki (M) Bcl-xL): 2.41e-09 M; Ki (M) Bcl-xL (Bcl-xL; [1]): 3.68e-09 M; Ki (M) Bcl-xL (Bcl-xL; [2]): 1.31e-09 M; Ki (M) Bcl-xL (Bcl-xL; [3]): 2.24e-09 M
3 | Ac-QWVREIAAQLRRMADDLNAQYER-NH2 [FS2_N/Puma_C] | 4.65e-07 | 6.79e-07 | 6.37e-07 | 1.2 ± 0.3 | 14 ± 2 | 2.4e-09 ± 1.2e-09 | 8.46e-05 | 5.7e-06 | 6.84e-05 | 0.00018 | 3e-10 ± 3e-10 | Ki (Bcl-w; competition FP source data, mean of three replicates, values above 5 μM are reported as > 5 μM in the figures, read-out: mean Ki (M) Bcl-w): 8830 nM; Ki (M) Bcl-w (Bcl-w; [1]): 9.94e-06 M; Ki (M) Bcl-w (Bcl-w; [2]): 6.82e-06 M; Ki (M) Bcl-w (Bcl-w; [3]): 9.74e-06 M; Ki (Bcl-2; competition FP source data, mean of three replicates, values above 5 μM are reported as > 5 μM in the figures, read-out: mean Ki (M) Bcl-2): 2000 nM; Ki (M) Bcl-2 (Bcl-2; [1]): 1.99e-06 M; Ki (M) Bcl-2 (Bcl-2; [2]): 1.85e-06 M; Ki (M) Bcl-2 (Bcl-2; [3]): 2.17e-06 M; Ki (Bfl-1; competition FP source data, mean of three replicates): 594 nM

Source: paper PMC5464773 (eLife, 2017)
